How the values were obtained:
HL-60 cells = assay: XTT viability of HL-60 cells after 3 days, with and without piceatannol; type: cell-based, human; details: for viability of HL-60 cells, XTT method: 3 days
Description: Secondly, the effect of compounds of the invention may be compared to the natural inhibitor of Syk, piceatannol.

PHA-activated PBMCs = assay: Inhibition of PHA-activated PBMCs (lymphocyte proliferation); type: cell-based, human; details: varying concentrations
Protocol: (§1) The jurkat E6.1 line is a Syk-deficient line; in fact, AV 61S after 7 days has no effect on this cell line (i.e., neither apoptosis nor inhibition, see […]). […] The viability study has been performed after 24 and 48 hours of incubation, each time for 3 evaluations; within 1, 3 and 6 hours.
FIGS. 1 and 2 show the effect of diluent on compounds of the invention.

E6.1 Jurkat cells = assay: Viability of E6.1 Jurkat cells after 24 and 48 hours (FIGS. 18, 19); type: cell-based; details: 24 and 48 hours of incubation
Protocol: FIG. 18 illustrates, in comparison with cyclosporin-treated Jurkat cells, the viability of E6.1 Jurkat cells treated with differing concentrations of AV 61S or AV 74S after 24 hours; and
FIG. 19 illustrates, in comparison with cyclosporin-treated Jurkat cells, the viability of E6.1 Jurkat cells treated with differing concentrations of AV 61S or AV 74S after 48 hours.
as §1

[1] = tested on: jurkat E6.1 line (Syk-deficient); assay: E6.1 Jurkat cell survival after seven days (FIG. 3); type: cell-based; details: after 7 days
Protocol: as §1

[2] = tested on: Syk-containing Jurkat cells; assay: Jurkat cell survival after seven days (FIG. 4); type: cell-based; details: 50 μg/ml
Protocol: FIG. 4 illustrates the effect of AV 61S and AV 74S on Jurkat cell survival after a seven day period;
as §1

CC(CO)OCC(C)OCC(C)OCC(C)OCC(C)OCC(C)OCC(C)OC[C@H](Cc1ccccc1)NC(=O)CCc1ccc(O)cc1 (stereo partly drawn) [AV 61S]
viability of HL-60 cells, XTT method (HL-60 cells; 50 μg/ml with Pic 10 μM): 97 % of control
viability of HL-60 cells, XTT method (HL-60 cells; 50 μg/ml with Pic 30 μM): 83 % of control
viability of HL-60 cells, XTT method (HL-60 cells; 50 μg/ml, no piceatannol): 81 % of control
viability of HL-60 cells, XTT method (HL-60 cells; 100 μg/ml with Pic 10 μM): 59 % of control
viability of HL-60 cells, XTT method (HL-60 cells; 100 μg/ml with Pic 30 μM): 23 % of control
viability of HL-60 cells, XTT method (HL-60 cells; 100 μg/ml, no piceatannol): 36 % of control
inhibitory effect on PHA-activated PBMCs (PHA-activated PBMCs; DMSO carrier): inhibitory effect
inhibitory effect on PHA-activated PBMCs (PHA-activated PBMCs; PBS carrier): lesser inhibitory effect
killing of E6.1 Jurkat cells (viability study) (E6.1 Jurkat cells): do not kill them
effect on Syk-deficient jurkat E6.1 line (apoptosis, inhibition) [1]: no effect
killing of Syk-containing Jurkat cells [2]: ~100%

Oc1cc(O)cc(/C=C/c2ccc(O)c(O)c2)c1 [piceatannol, reference compound]
blocking of the inhibitory effect of AV 74S by piceatannol (HL-60 cells; AV 74S at 100 μg/ml, HL-60): at least partially blocks the inhibitory effect of AV 74S

— US20120108666A1, “Treatment of Cell Proliferative Disorders” (priority 2006, published 2012)
